Reference: the supplement of paper PMC10627819

Legend:
B. subtilis 168 [1] = assay: fitness (endpoint OD595 vs no drug) (fraction); higher = more growth
Outline: (§1)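 Fitness was defined as the optical density at the transition into stationary phase relative to the robust mean of no-drug control wells. Values were capped at 1. Cultures were started at OD595 0.01 in 384-well plates (30 µl, or 55 µl for S. pneumoniae) in TSB, LB Lennox or CY at 37 °C. OD595 was recorded every 30 min over 14 h, with the first reading subtracted as background.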

S. pneumoniae D39V [2] = assay: as above
Outline: as §1

B. subtilis 168 [3] = assay: Bliss interaction score (quartile over a dose matrix) (fitness difference); higher = more antagonism (negative = synergy)
Outline: (§2)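 Fitness was derived from optical density at entry into stationary phase, divided by the robust mean of the no-drug wells on the same plate. That reading was taken as OD595, and the ratio was capped at 1. Single-drug fitness was inferred from the combination data. The Bliss score, observed fitness minus the expected product of single-drug fitness, was summarised as quartiles over technical, biological and donor/recipient replicates.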

S. aureus DSM 20231 = assay: as above
Outline: as §2

S. aureus Newman = assay: as above
Outline: as §2

S. pneumoniae D39V [4] = assay: as above
Outline: as §2
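For Bliss interaction score (quartile over a dose matrix) in this document: first quartile when negative (synergy) and third quartile when positive (antagonism).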

CN(C)C(=O)C(CCN1CCC(O)(c2ccc(Cl)cc2)CC1)(c1ccccc1)c1ccccc1 [Loperamide] + COc1ccc(C[C@H](N)C(=O)N[C@H]2[C@@H](O)[C@H](n3cnc4c(N(C)C)ncnc43)O[C@@H]2CO)cc1 [Puromycin]
fitness
Details | partner 0.39 µg/mL | partner 0.78 µg/mL | partner 1 µg/mL | partner 1.56 µg/mL | partner 2 µg/mL | partner 4 µg/mL
B. subtilis 168 [1], first compound 25 µg/mL | 0.82 | 0.767 | – | 0.718 | – | –
B. subtilis 168 [1], first compound 50 µg/mL | 0.0429 | 0.038 | – | 0.0393 | – | –
B. subtilis 168 [1], first compound 100 µg/mL | 0.0261 | 0.0107 | – | 0.0233 | – | –
S. pneumoniae D39V [2], first compound 17.14 µg/mL | – | – | 0.999 | – | 0.965 | 0.872
S. pneumoniae D39V [2], first compound 34.28 µg/mL | – | – | 0.988 | – | 0.952 | 0.813

fitness, S. pneumoniae D39V [2], one replicate
Details | first compound 20 µg/mL | first compound 40 µg/mL | first compound 68.57 µg/mL | first compound 80 µg/mL
partner 1 µg/mL | 0.951 | 0.899 | 0.997 | 0.159
partner 2 µg/mL | 0.951 | 0.93 | 0.956 | 0.129
partner 4 µg/mL | 0.835 | 0.828 | 0.908 | 0.0785

Details | Bliss interaction score
B. subtilis 168 [3] | -0.121
S. aureus DSM 20231 | -0.192
S. aureus Newman | -0.0477
S. pneumoniae D39V [4] | 0.0779

CN(C)C(=O)C(CCN1CCC(O)(c2ccc(Cl)cc2)CC1)(c1ccccc1)c1ccccc1 [Loperamide] + C[n+]1ccc(-c2cc[n+](C)cc2)cc1 [Paraquat]
fitness
Details | partner 1.25 µg/mL | partner 1.5 µg/mL | partner 2.5 µg/mL | partner 3 µg/mL | partner 5 µg/mL | partner 6 µg/mL
B. subtilis 168 [1], first compound 25 µg/mL | 0.798 | – | 0.684 | – | 0.537 | –
B. subtilis 168 [1], first compound 50 µg/mL | 0.0367 | – | 0.0251 | – | 0.0432 | –
B. subtilis 168 [1], first compound 100 µg/mL | 0.0324 | – | 0.0267 | – | 0.0238 | –
S. pneumoniae D39V [2], first compound 17.14 µg/mL | – | 0.994 | – | 0.984 | – | 0.922
S. pneumoniae D39V [2], first compound 34.28 µg/mL | – | 0.972 | – | 0.973 | – | 0.883

fitness, S. pneumoniae D39V [2], one replicate
Details | first compound 20 µg/mL | first compound 40 µg/mL | first compound 68.57 µg/mL | first compound 80 µg/mL
partner 1.5 µg/mL | ≥ 1 | ≥ 1 | 0.934 | ≥ 1
partner 3 µg/mL | ≥ 1 | ≥ 1 | 0.931 | ≥ 1
partner 6 µg/mL | ≥ 1 | ≥ 1 | 0.853 | ≥ 1

Details | Bliss interaction score
B. subtilis 168 [3] | -0.103
S. aureus DSM 20231 | 0.177
S. aureus Newman | 0.0662
S. pneumoniae D39V [4] | 0.0549
